Measured values from publication PMC8388771, “Cationic Peptidomimetic Amphiphiles Having a N-Aryl- or N-Naphthyl-1,2,3-Triazole Core Structure Targeting Clostridioides (Clostridium) difficile: Synthesis, Antibacterial Evaluation, and an In Vivo C. difficile Infection Model” (Antibiotics, 2021).
Like-named read-outs stand apart in the source and are kept apart here.

Legend:
[1] = test system: C. difficile ATCC 700057; assay: Primary MIC assay, C. difficile ATCC 700057; format: cell-based, Clostridioides difficile; details: Table 1; for MIC: Clostridioides difficile, ATCC700057, read-out: MIC C. difficile ATCC 700057
Experimental: (§1) The N-arytriazole and N-naphthyltriazole peptidomimetics were subjected to antimicrobial screening. […] Vancomycin, colistin, fluconazole, and tamoxifen were used as positive controls (see Table 1 for details).
(§2) Primary screening (Gram-positive bacteria). Primary MIC assays were performed as described by the Clinical and Laboratory Standards Institute for aerobic and anaerobic bacteria. MIC values for vancomycin were within acceptable QC ranges.

[2] = test system: C. difficile 132 (RT027); assay: Primary MIC assay, C. difficile 132 (RT027); format: cell-based, Clostridioides difficile; details: Table 1; for MIC: Clostridioides difficile, read-out: MIC C. difficile 132 (RT027)
Experimental: as §1, §2

[3] = test system: S. aureus ATCC 29213; assay: Primary MIC assay, S. aureus ATCC 29213; format: cell-based; details: Staphylococcus aureus, ATCC29213; Table 1; read-out: MIC S. aureus ATCC 29213
Experimental: as §1, §2

[4] = test system: S. aureus NCTC 10442; assay: Primary MIC assay, S. aureus NCTC 10442 (MRSA); format: cell-based; details: Staphylococcus aureus, MRSA
Experimental: as §1, §2

[5] = test system: E. faecalis ATCC 29212; assay: Primary MIC assay, E. faecalis ATCC 29212; format: cell-based, Enterococcus faecalis; details: Enterococcus faecalis, ATCC29212; Table 1; read-out: MIC E. faecalis ATCC 29212
Experimental: as §1, §2

[6] = test system: S. pneumoniae ATCC 49619; assay: Primary MIC assay, S. pneumoniae ATCC 49619; format: cell-based, Streptococcus pneumoniae; details: Streptococcus pneumoniae, ATCC49619; Table 1; read-out: MIC S. pneumoniae ATCC 49619
Experimental: as §1, §2

[7] = test system: E. coli ATCC 25922; assay: Primary MIC assay, E. coli ATCC 25922; format: cell-based; details: Escherichia coli, ATCC25922; Table 1; read-out: MIC E. coli ATCC 25922
[8] = Cytotoxicity (CC50) assay by CO-ADD; format: cell-based, human; details: human, HEK293 cells (ATCC CRL-1573); Table 1; cytotoxicity on HEK293 cells, tested at ≤32 µg/mL
From the text: as §1
(§3) Secondary screening (MRSA and Gram-negative bacteria) and cytotoxicity assay–performed by the Community for Open Antimicrobial Drug Discovery (CO-ADD). Samples were provided to CO-ADD [29] for antimicrobial screening by whole cell growth inhibition assays.
Cytotoxicity Assay. These were performed as described previously.

[9] = test system: human erythrocytes; assay: Hemolysis assay, HC50 determination; format: cell-based
Experimental: Hemolysis assay (human erythrocytes)–HC50 determination. These were performed as described previously.

[10] = test system: S. aureus ATCC 43300; assay: CO-ADD MIC assay, S. aureus ATCC 43300 (MRSA); format: cell-based; details: Staphylococcus aureus, MRSA, read-out: MIC S. aureus ATCC 43300
From the text: as §1, §3
(§4) Bacterial Inhibition–MIC Assay. These were performed as described previously.

[11] = test system: P. aeruginosa ATCC 27853; assay: CO-ADD MIC assay, P. aeruginosa ATCC 27853; format: cell-based; details: Pseudomonas aeruginosa, ATCC27853, Table S1
From the text: as §1, §3, §4

[12] = test system: K. pneumoniae ATCC 700603; assay: CO-ADD MIC assay, K. pneumoniae ATCC 700603; format: cell-based; details: Klebsiella pneumoniae, ATCC700603, Table S1, multi-drug resistant
From the text: as §1, §3, §4

[13] = test system: A. baumannii ATCC 19606; assay: CO-ADD MIC assay, A. baumannii ATCC 19606; format: cell-based; details: Acinetobacter baumannii, ATCC19606, Table S1
From the text: as §1, §3, §4

[14] = test system: E. coli ATCC 25922; assay: CO-ADD MIC assay, E. coli ATCC 25922; format: cell-based; details: Escherichia coli, ATCC25922, Table S1
From the text: as §1, §3, §4

[15] = test system: C. albicans ATCC 90028; assay: CO-ADD MIC assay, C. albicans ATCC 90028; format: cell-based; details: Candida albicans, ATCC90028, Table S1
From the text: as §1, §3

[16] = test system: Cryptococcus neoformans var. grubii ATCC 208821; assay: CO-ADD MIC assay, C. neoformans var. grubii ATCC 208821; format: cell-based; details: for MIC: Cryptococcus neoformans, ATCC208821, Table S1; for MIC C. neoformans var. grubii ATCC 208821: Table S1
From the text: as §1, §3

[17] = test system: C. difficile strain M7404 (RT027); assay: In vivo murine model of CDI treatment; set-up: species or system C57BL/6J mice
Experimental: Disease Treatment Model. These experiments were performed as previously described. Mice were humanely killed at the onset of severe disease or at the end of the experiment (day 4), as previously described.
Statistical Analysis. Statistical analysis was performed using Prism 7 (GraphPad Software). The Kaplan–Meier survival curves were assessed using a log-rank (Mantel–Cox) test. Weight loss, spore shedding, fecal consistency, and physiological appearance data were analyzed by one-way ANOVA with a post hoc Tukey’s multiple comparison test. Differences in data values were considered significant at a p value of <0.05.
Figure 3 C57BL/6J mice (n = 5 per group) were infected with 10^5 spores of C. difficile strain M7404 (RT027). Six hours post-infection and then every 12 h thereafter, mice were administered either 10% DMSO (blue) or 2.5 mg (100 mg/kg in 10% DMSO) of compound 40 (red) by oral gavage. Mice were monitored daily for survival (a) and weight loss relative to day 0, which was the day of infection (b). Fecal spore load at 1-day post-infection was determined by plating (c). Data are presented as CFU/gram feces, with each point representing a single mouse. Mouse cages were scored on day 1 post-infection for appearance (d) and mice were individually assessed for fecal consistency (e) and physiological appearance (f). Data represent the mean ±S.E.M. and statistical significance was assessed using a log-rank (Mantel–Cox) test or one-way ANOVA with a post hoc Tukey’s multiple comparison test. […]
The murine model of CDI was conducted with project collaborators at Monash University. The murine model of CDI was performed by pretreating cohorts of five mice that had been earlier infected via oral gavage with hypervirulent M7404 C. difficile spores. The infection was allowed to develop for 12 h before the trial drug was administered every 12 h for five days. The mice received a single dosage of 2.5 mg of […] (i.e.
100 mg/kg for an average 25 g mouse) administered in a solvent mixture of 10% DMSO and H2O at each 12 h dosing period. The mice body weight was checked every day. If a mouse lost 10% of its body weight in the first 24 h, then the infection was developing, and the mouse was separated from the trial and culled for ethical reasons. The whole survival rate for every drug cohort was utilized to measure effectiveness of that drug.
Other physiological parameters such as cage appearance scores and faecal consistency scores were additional measures for the efficacy of the drug in this murine trial. The experimental data of the in vivo CDI model can be found in Section 3.3.3 and the experimental procedures can be found in Section 6.4.3.
Compound 40 was selected for a murine model of CDI study because of its better antimicrobial potency against C. difficile and its better water solubility profile (Section 3.2.7). Compound 40 was prepared on a larger scale i.e. nearly 300 mg for the purpose of in vivo mouse model of CDI at Monash University. […]
In the secondary CDI mouse model trial, the solution (10% v/v DMSO/H2O) of the compound 40 was ad-ministered to mice by oral gavage.

[18] = Comparative solubility assay (solubility ratio relative to compound 1); format: physicochemical
From the text: While the selectivity ratio could be more substantial, this is acceptable for the future development of these gastrointestinal focused compounds. […] These outcomes were confirmed with no issues during the mouse model trials with sufficient solubility in the dosage regimen. Variations on the triazole and O-naphthyl substituents could be made in future studies with the view of enhancing antibacterial activity against C. difficile.

[19] = test system: C. difficile; assay: MIC against C. difficile, strain not given; format: cell-based; details: Clostridioides difficile, strains of Table 1
Experimental: as §2

[20] = MRSA / NCTC 10442 / NCTC 104422, Table 2, read-out: MIC S. aureus NCTC 104422
[21] = Table 1, read-out: MIC S. aureus NCTC 10442
[22] = Table 1, lysis of human erythrocytes
[23] = Table 2, footnote says lysis of sheep erythrocytes
[24] = Table S1, footnote says lysis of sheep erythrocytes

Row | MIC [1] [µg/mL] | MIC [2] [µg/mL] | MIC [3] [µg/mL] | MIC [4, 21] [µg/mL] | MIC [5] [µg/mL] | MIC [6] [µg/mL] | MIC [7] [µg/mL] | MIC ([10]; Table S1, CO-ADD) [µg/mL] | MIC [11] [µg/mL] | MIC [12] [µg/mL] | MIC [13] [µg/mL] | MIC [14] [µg/mL] | MIC [15] [µg/mL] | MIC [16] [µg/mL] | SMILES | MIC C. difficile ATCC 700057 [1] [µg/mL] | MIC C. difficile 132 (RT027) [2] [µg/mL] | MIC [4, 20] [µg/mL] | CC50 [8] [µg/mL] | HC50 [9, 22] [µg/mL] | HC50 [9, 24] [µg/mL] | also measured
1 | 32 | 32 | 4 | 4 | 8 | 8 | 32 | 4 | > 32 | > 32 | > 32 | 32 | 16 | 32 | CC(C)CCc1cn(-c2c(OCC(=O)N[C@H](CCCNC(=N)N)Cn3cc(CC4CCCCC4)nn3)ccc3ccccc23)nn1.Cl [Compound 22] | – | – | – | > 32 | >32 | > 32 | –
2 | 8 | 8 | 8 | 8 | 8 | 8 | 32 | 8 | 32 | > 32 | 32 | 32 | > 32 | 4 to 8 | CC(C)CCc1cn(-c2c(OCC(=O)N[C@H](CCCCN)C(=O)N[C@H](CCCNC(=N)N)Cn3cc(Cc4ccccc4)nn3)ccc3ccccc23)nn1.Cl.Cl [Compound 42] | 8 | 8 | 8 | 32 | 32 | 32 | HC50 [9, 23]: 32 µg/mL; MIC ([10]; Table 2): 8 µg/mL; MIC C. neoformans var. grubii ATCC 208821 [16]: 8 µg/mL; relative solubility ratio (relative to compound 1) [18]: 4; MIC [19]: 8 µg/mL
3 | > 32 | > 32 | > 32 | > 32 | > 32 | > 32 | > 32 | > 32 | > 32 | > 32 | > 32 | > 32 | > 32 | > 32 | CC(C)CCOc1ccccc1-n1nncc1COCC(=O)N[C@H](CCCCN)C(=O)N[C@H](CCCNC(=N)N)Cn1cc(C2CCCCC2)nn1 [Compound 48] | – | – | – | > 32 | 24.5 | 24.5 | –

Row | SMILES | MIC [1] [µg/mL] | MIC [2] [µg/mL] | MIC [3] [µg/mL] | MIC [4, 21] [µg/mL] | MIC [5] [µg/mL] | MIC [6] [µg/mL] | MIC [7] [µg/mL] | MIC ([10]; Table S1, CO-ADD) [µg/mL] | MIC [11] [µg/mL] | MIC [12] [µg/mL] | MIC [13] [µg/mL] | MIC [14] [µg/mL] | MIC [15] [µg/mL] | MIC [16] [µg/mL] | MIC C. difficile ATCC 700057 [1] [µg/mL] | MIC C. difficile 132 (RT027) [2] [µg/mL] | MIC [4, 20] [µg/mL] | CC50 [8] [µg/mL] | HC50 [9, 22] [µg/mL] | HC50 [9, 24] [µg/mL] | also measured
4 | CC(C)CCc1cn(-c2c(OCC(=O)N[C@H](CCCCN)C(=O)N[C@H](CCCNC(=N)N)Cn3cc(C4CCCCC4)nn3)ccc3ccccc23)nn1.Cl.Cl [Compound 40, (R)-6-Amino-N-((R)-1-(4-cyclohexyl-1H-1,2,3-triazol-1-yl)-5-guanidinopentan-2-yl)-2-(2-((1-(4-isopentyl-1H-1,2,3-triazol-1-yl)naphthalen-2-yl)oxy)acetamido)hexanamide dihydrochloride] | 8 | 8 | 16 | 16 | 32 | 16 | 64 | 8 | 32 | > 32 | 32 | 32 | > 32 | 4 to 8 | 8 | 8 | 16 | 32 | 32 | 32 | HC50 [9, 23]: 32 µg/mL; MIC ([10]; Table 2): 8 µg/mL; MIC C. neoformans var. grubii ATCC 208821 [16]: 4 µg/mL; disease onset compared to mice treated with DMSO ([17]; 100 mg/kg oral gavage): delayed disease onset; effect on spore numbers shed in the feces ([17]; 1-day post-infection): no effect; greater survival compared with mice treated with DMSO ([17]; day 1 post-infection): 40%; individual fecal score vs DMSO group ([17]; day 1 post-infection): no significant difference; overall cage appearance score compared to DMSO ([17]; day 1 post-infection): lower; physiological appearance score vs DMSO group ([17]; day 1 post-infection): no significant difference; survival outcome ([17]; day 2): succumbed to infection by day 2; survival observed after 24 h ([17]; mice, 100 mg/kg in 10% DMSO by oral gavage every 12 h, DMSO control 40%): 80%; effect on mouse weight ([17]; weight loss relative to day 0): no effect; relative solubility ratio (relative to compound 1) [18]: 5; MIC [19]: 8 µg/mL
